Source: US20240285670A1, “THERAPEUTIC TREATMENT OF TUMORS BY BLOCKING THE HEME SYNTHESIS-EXPORT AXIS” (Università degli Studi di Torino, priority 2021, published 2024)

How the values were obtained:
SH-SY5Y cells = assay: TCA cycle flux in SHSY-5Y cells; assay type: cell-based, human; settings: FLVCR1a-silenced vs scramble shRNA SH-SY5Y cells
Source text: Results were expressed as nmol NAD*/min/mg mitochondrial protein for complex I, nmol reduced cytochrome c/min/mg mitochondrial protein for complexes II-III, nmol oxidized cytochrome c/min/mg mitochondrial protein for complex IV. Data represent mean±SEM, n=3. For statistical analyses, an unpaired Student's t-test was used; *=p<0.05, **=p<0.01, *=p<0.001. […] Results are expressed as nmol/mg mitochondrial proteins. Data represent mean±SEM, n=3. For statistical analyses, an unpaired Student's t-test was used; *=p<0.05. […] Results are expressed as pmol CO2/h/mg protein. Data represent mean±SEM, n=3. For statistical analyses, an unpaired Student's t-test was used; **=p<0.01. […] Results were expressed as nmol NAD*/min/mg mitochondrial protein for complex I, nmol reduced cytochrome c/min/mg mitochondrial protein for complexes II-III, nmol oxidized cytochrome c/min/mg mitochondrial protein for complex IV. […] Results are expressed as nmol/mg mitochondrial proteins. […] Results are expressed as pmol CO2/h/mg protein. […] (H) TCA cycle enzymes activities are reported in boxes and expressed as mU/mg mitochondrial proteins. […] Results were expressed as nmol NAD^+/min/mg mitochondrial protein for complex I, nmol reduced cytochrome c/min/mg mitochondrial protein for complexes II-III, nmol oxidized cytochrome c/min/mg mitochondrial protein for complex IV. […] Results are expressed as nmol/mg mitochondrial proteins. […]

SKCO1 cells = assay: Mitochondrial ATP levels in SKCO1 cells; assay type: cell-based, human; settings: FLVCR1a-silenced vs scramble shRNA SKCO1 cells
Source text: (A, C, E) Activities of the mitochondrial electron transport chain complexes I-IV. FLVCR1a-silenced Caco2 (A), SKCO1 (C) or C80 cells (E) are compared to cells expressing a scramble shRNA. Results were expressed as nmol NAD^+/min/mg mitochondrial protein for complex I, nmol reduced cytochrome c/min/mg mitochondrial protein for complexes II-III, nmol oxidized cytochrome c/min/mg mitochondrial protein for complex IV. Data represent mean±SEM, n=3. For statistical analyses, an unpaired Student's t-test was used; *=p<0.05, **=p<0.01. (B, D, F) Mitochondrial ATP levels measured by a bioluminescent assay kit. FLVCR1a-silenced Caco2 (B), SKCO1 (D) or C80 cells (F) are compared to cells expressing a scramble shRNA. Results are expressed as nmol/mg mitochondrial proteins. […] Results were expressed as nmol NAD^+/min/mg mitochondrial protein for complex I, nmol reduced cytochrome c/min/mg mitochondrial protein for complexes II-III, nmol oxidized cytochrome c/min/mg mitochondrial protein for complex IV. […] (H) Mitochondrial ATP levels measured by a bioluminescent assay kit in Caco2 cells overexpressing FLVCR1a (indicated as FLVCR1a+) compared to cells stably transduced with an empty vector. Results are expressed as nmol/mg mitochondrial proteins. […]
ATP levels in mitochondria extracts were assessed by the ATP Bioluminescent Assay Kit (Sigma-Aldrich, St. Louis, MO USA, catalog n° FLAA). […]

“FLVCR1a shRNA: shRNA specifically down-regulating FLVCR1a without targeting FLVCR1b; pLKO.1 lentiviral clone TRCN0000059599, antisense SEQ ID No.: 2 (antisense TTGCTAATGATGCTGTACTGG; sense CCAGTACAGCATCATTAGCAA)” was tested, and the TCA cycle flux (SH-SY5Y cells) was “increased TCA cycle flux” and the “mitochondrial ATP levels” value (SKCO1 cells) was “increased”.
